pEC50: −log10 of the molar value.
Tests used:
[1] = target: T1, THR beta-LBD (Homo sapiens, UniProt P10828); experiment: THR-β Coactivator Peptide Recruitment Assay (LanthaScreen TR-FRET); format: biochemical; details: TR-FRET coactivator recruitment, THR beta-LBD 0.5 nM; for pEC50: read-out: THRβ EC50
T1 construct: THR beta-LBD (the final concentration is 0.5 nM) was added to the 384-well assay plate; purchased Invitrogen PV4686
T1 sequence (P10828 217-461 limits assumed): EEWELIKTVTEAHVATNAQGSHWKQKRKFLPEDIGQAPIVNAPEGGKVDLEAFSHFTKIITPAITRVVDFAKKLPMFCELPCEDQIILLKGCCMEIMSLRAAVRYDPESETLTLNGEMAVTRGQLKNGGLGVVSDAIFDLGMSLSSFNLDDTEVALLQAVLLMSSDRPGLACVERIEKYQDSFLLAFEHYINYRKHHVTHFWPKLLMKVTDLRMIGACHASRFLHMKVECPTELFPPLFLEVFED
Procedure, shortened: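 Agonist-driven coactivator recruitment read as a 520/495 nm TR-FRET emission ratio after 2 h at room temperature. Final concentrations: THR beta-LBD 0.5 nM, fluorescein-SRC2-2 peptide 0.1 nM, terbium anti-GST antibody 2 nM. EC50 from four-parameter dose-response fitting.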

[2] = target: T2, THR alpha-LBD (Homo sapiens, UniProt P10827); experiment: THR-α Coactivator Peptide Recruitment Assay (LanthaScreen TR-FRET); format: biochemical; details: TR-FRET coactivator recruitment, THR alpha-LBD 0.25 nM; for pEC50: read-out: THRα EC50
T2 construct: except that THR alpha-LBD of a final concentration 0.25 nM was used; purchased Invitrogen PV4687
T2 sequence (P10827 163-410 isoform P10827-2 limits assumed, other chains not shown): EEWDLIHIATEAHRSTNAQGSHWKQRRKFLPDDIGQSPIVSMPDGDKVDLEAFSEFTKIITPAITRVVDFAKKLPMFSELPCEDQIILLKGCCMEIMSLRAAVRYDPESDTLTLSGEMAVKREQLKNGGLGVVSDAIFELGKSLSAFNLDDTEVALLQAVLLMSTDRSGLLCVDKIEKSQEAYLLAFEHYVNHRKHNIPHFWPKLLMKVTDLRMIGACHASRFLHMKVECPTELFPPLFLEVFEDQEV
Procedure, shortened: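 TR-FRET coactivator recruitment with THR alpha-LBD at 0.25 nM final, Fluorescein-SRC2-2 peptide 0.1 nM and Tb-labeled anti-GST antibody 2 nM; 2 h incubation at room temperature. 520/495 nm emission ratio fitted to a four-parameter sigmoidal curve to give EC50.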

| Structure (SMILES) | THRβ Emax [1] | pEC50 [1] | THRα Emax [2] | pEC50 [2] |
| --- | --- | --- | --- | --- |
| O=c1[nH]c(=O)n(-c2cc(Cl)c(Oc3cc(S(=O)(=O)NC4CC4)c(O)cn3)c(Cl)c2)nc1C(F)F [Compound 131, N-cyclopropyl-2-(2,6-dichloro-4-(6-(difluoromethyl)-3,5-dioxo-4,5-dihydro-1,2,4-triazin-2(3H)-yl)phenoxy)-5-hydroxypyridine-4-sulfonamide] | A (90~110) | > 8.70 | A (85~110) | 6.70 to 8.70 |
| O=c1[nH]c(=O)n(-c2cc(Cl)c(Oc3cc(S(=O)(=O)N[C@H]4C[C@@H](O)C4)c(O)cn3)c(Cl)c2)nc1C(F)F [Compound 132, 2-(2,6-dichloro-4-(6-(difluoromethyl)-3,5-dioxo-4,5-dihydro-1,2,4-triazin-2(3H)-yl)phenoxy)-5-hydroxy-N-((1s,3s)-3-hydroxycyclobutyl)pyridine-4-sulfonamide] | A (90~110) | 7.70 to 8.70 | B (40~85) | 6.00 to 6.70 |
| O=c1[nH]c(=O)n(-c2cc(Cl)c(Oc3cc(S(=O)(=O)NC[C@H]4C[C@H](O)C4)c(O)cn3)c(Cl)c2)nc1C(F)F [Compound 133, 2-(2,6-dichloro-4-(6-(difluoromethyl)-3,5-dioxo-4,5-dihydro-1,2,4-triazin-2(3H)-yl)phenoxy)-5-hydroxy-N-(((1r,3r)-3-hydroxycyclobutyl)methyl)pyridine-4-sulfonamide] | B (75~90) | 7.00 to 7.70 | B (40~85) | < 6.00 |
| O=c1[nH]c(=O)n(-c2cc(Cl)c(Oc3cc(S(=O)(=O)NC[C@H]4C[C@@H](O)C4)c(O)cn3)c(Cl)c2)nc1C(F)F [Compound 134, 2-(2,6-dichloro-4-(6-(difluoromethyl)-3,5-dioxo-4,5-dihydro-1,2,4-triazin-2(3H)-yl)phenoxy)-5-hydroxy-N-(((1s,3s)-3-hydroxycyclobutyl)methyl)pyridine-4-sulfonamide] | B (75~90) | 7.00 to 7.70 | B (40~85) | < 6.00 |
| N#CC1(NS(=O)(=O)c2cc(Oc3c(Cl)cc(-n4nc(C(F)F)c(=O)[nH]c4=O)cc3Cl)ncc2O)CC1 [Compound 135, N-(1-cyanocyclopropyl)-2-(2,6-dichloro-4-(6-(difluoromethyl)-3,5-dioxo-4,5-dihydro-1,2,4-triazin-2(3H)-yl)phenoxy)-5-hydroxypyridine-4-sulfonamide] | A (90~110) | 7.70 to 8.70 | A (85~110) | 6.70 to 8.70 |
| O=c1[nH]c(=O)n(-c2cc(Cl)c(Oc3cc(S(=O)(=O)NC4CCOCC4)c(O)cn3)c(Cl)c2)nc1C(F)F [Compound 136, 2-(2,6-dichloro-4-(6-(difluoromethyl)-3,5-dioxo-4,5-dihydro-1,2,4-triazin-2(3H)-yl)phenoxy)-5-hydroxy-N-(tetrahydro-2H-pyran-4-yl)pyridine-4-sulfonamide] | B (75~90) | 7.70 to 8.70 | B (40~85) | 6.70 to 8.70 |
| CC(C)(O)CNS(=O)(=O)c1cc(Oc2c(Cl)cc(-n3nc(C(F)F)c(=O)[nH]c3=O)cc2Cl)ncc1O [Compound 137, 2-(2,6-dichloro-4-(6-(difluoromethyl)-3,5-dioxo-4,5-dihydro-1,2,4-triazin-2(3H)-yl)phenoxy)-5-hydroxy-N-(2-hydroxy-2-methylpropyl)pyridine-4-sulfonamide] | C (<75) | 7.00 to 7.70 | B (40~85) | < 6.00 |
| C[C@]1(O)C[C@@H](NS(=O)(=O)c2cc(Oc3c(Cl)cc(-n4nc(C(F)F)c(=O)[nH]c4=O)cc3Cl)ncc2O)C1 [Compound 138, 2-(2,6-dichloro-4-(6-(difluoromethyl)-3,5-dioxo-4,5-dihydro-1,2,4-triazin-2(3H)-yl)phenoxy)-5-hydroxy-N-((1s,3s)-3-hydroxy-3-methylcyclobutyl)pyridine-4-sulfonamide] | C (<75) | < 7.00 | C (<40) | < 6.00 |
| CO[C@H]1C[C@H](NS(=O)(=O)c2cc(Oc3c(Cl)cc(-n4nc(C(F)F)c(=O)[nH]c4=O)cc3Cl)ncc2O)C1 [Compound 139, 2-(2,6-dichloro-4-(6-(difluoromethyl)-3,5-dioxo-4,5-dihydro-1,2,4-triazin-2(3H)-yl)phenoxy)-5-hydroxy-N-((1r,3r)-3-methoxycyclobutyl)pyridine-4-sulfonamide] | B (75~90) | 7.70 to 8.70 | B (40~85) | 6.00 to 6.70 |
| CO[C@H]1C[C@@H](NS(=O)(=O)c2cc(Oc3c(Cl)cc(-n4nc(C(F)F)c(=O)[nH]c4=O)cc3Cl)ncc2O)C1 [Compound 140, 2-(2,6-dichloro-4-(6-(difluoromethyl)-3,5-dioxo-4,5-dihydro-1,2,4-triazin-2(3H)-yl)phenoxy)-5-hydroxy-N-((1s,3s)-3-methoxycyclobutyl)pyridine-4-sulfonamide] | B (75~90) | 7.00 to 7.70 | B (40~85) | 6.00 to 6.70 |
| O=c1[nH]c(=O)n(-c2cc(Cl)c(Oc3cc(S(=O)(=O)N4CC[C@@H](O)C4)c(O)cn3)c(Cl)c2)nc1C(F)F [Compound 141, (R)-2-(3,5-dichloro-4-((5-hydroxy-4-((3-hydroxypyrrolidin-1-yl)sulfonyl)pyridin-2-yl)oxy)phenyl)-6-(difluoromethyl)-1,2,4-triazine-3,5(2H,4H)-dione] | B (75~90) | 7.70 to 8.70 | B (40~85) | 6.70 to 8.70 |
| O=c1[nH]c(=O)n(-c2cc(Cl)c(Oc3cc(S(=O)(=O)NC45CC(O)(C4)C5)c(O)cn3)c(Cl)c2)nc1C(F)F [Compound 142, 2-(2,6-dichloro-4-(6-(difluoromethyl)-3,5-dioxo-4,5-dihydro-1,2,4-triazin-2(3H)-yl)phenoxy)-5-hydroxy-N-(3-hydroxybicyclo[1.1.1]pentan-1-yl)pyridine-4-sulfonamide] | B (75~90) | 7.00 to 7.70 | B (40~85) | 6.00 to 6.70 |
| O=c1[nH]c(=O)n(-c2cc(Cl)c(Oc3cc(S(=O)(=O)N[C@H]4CC[C@H](O)CC4)c(O)cn3)c(Cl)c2)nc1C(F)F [Compound 143, 2-(2,6-dichloro-4-(6-(difluoromethyl)-3,5-dioxo-4,5-dihydro-1,2,4-triazin-2(3H)-yl)phenoxy)-5-hydroxy-N-((1r,4r)-4-hydroxycyclohexyl)pyridine-4-sulfonamide] | B (75~90) | 7.70 to 8.70 | B (40~85) | 6.00 to 6.70 |
| O=c1[nH]c(=O)n(-c2cc(Cl)c(Oc3cc(S(=O)(=O)N[C@H]4CC[C@@H](O)CC4)c(O)cn3)c(Cl)c2)nc1C(F)F [Compound 144, 2-(2,6-dichloro-4-(6-(difluoromethyl)-3,5-dioxo-4,5-dihydro-1,2,4-triazin-2(3H)-yl)phenoxy)-5-hydroxy-N-((1s,4s)-4-hydroxycyclohexyl)pyridine-4-sulfonamide] | C (<75) | 7.00 to 7.70 | C (<40) | < 6.00 |
| O=C(NC1CCC1)c1cc(Oc2c(Cl)cc(-n3nc(C(F)F)c(=O)[nH]c3=O)cc2Cl)ncc1O [Compound 145, N-cyclobutyl-2-[2,6-dichloro-4-[6-(difluoromethyl)-3,5-dioxo-1,2,4-triazin-2-yl]phenoxy]-5-hydroxy-pyridine-4-carboxamide] | B (75~90) | 7.70 to 8.70 | B (40~85) | 6.70 to 8.70 |
| CS(=O)(=O)c1cc(Oc2c(Cl)cc(-n3nc(C(F)F)c(=O)[nH]c3=O)cc2Cl)ncc1O [Compound 146, 2-[3,5-dichloro-4-[(5-hydroxy-4-methylsulfonyl-2-pyridyl)oxy]phenyl]-6-(difluoromethyl)-1,2,4-triazine-3,5-dione] | A (90~110) | 7.70 to 8.70 | A (85~110) | 6.70 to 8.70 |
| CS(=O)(=O)c1cc(Oc2c(Cl)cc(-n3nc(C#N)c(=O)[nH]c3=O)cc2Cl)ncc1O [Compound 147, 2-[3,5-dichloro-4-[(5-hydroxy-4-methylsulfonyl-2-pyridyl)oxy]phenyl]-3,5-dioxo-1,2,4-triazine-6-carbonitrile] | A (90~110) | 7.00 to 7.70 | B (40~85) | 6.00 to 6.70 |
| O=c1[nH]c(=O)n(-c2cc(Cl)c(Oc3cc(S(=O)(=O)NC4CS(=O)(=O)C4)c(O)cn3)c(Cl)c2)nc1C(F)F [Compound 148, 2-[2,6-dichloro-4-[6-(difluoromethyl)-3,5-dioxo-1,2,4-triazin-2-yl]-phenoxy]-N-(1,1-dioxothietan-3-yl)-5-hydroxy-pyridine-4-sulfonamide] | B (75~90) | 7.70 to 8.70 | A (85~110) | 6.70 to 8.70 |
| N#Cc1cc(O)c(S(=O)(=O)N[C@H]2C[C@H](O)C2)cc1Oc1c(Cl)cc(-n2nc(C(F)F)c(=O)[nH]c2=O)cc1Cl [Compound 149, 4-cyano-5-[2,6-dichloro-4-[6-(difluoromethyl)-3,5-dioxo-1,2,4-triazin-2-yl]phenoxy]-2-hydroxy-N-(3-hydroxycyclobutyl)benzenesulfonamide] | C (<75) | < 7.00 | C (<40) | < 6.00 |

Reference: patent publication US12291518B2, “Thyroid hormone receptor agonists and use thereof” (Eccogene Inc., priority 2020, dated 2025)
